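Cells were grown in 96-well plates and exposed to each compound for 48 hours at five concentrations; endpoints were interpolated linearly between bracketing concentrations, or set to the highest concentration if not reached. GI50 is the concentration that inhibits growth by half. TGI denotes the concentration required for complete inhibition of growth.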
Key:
Assay in all cases: DTP human tumour cell line panel, 48 h
[1] = tested on: 786-0 renal
[2] = tested on: A549 NSCLC
[3] = tested on: ACHN renal
[4] = tested on: BT-549 breast
[5] = tested on: CAKI-1 renal
[6] = tested on: CCRF-CEM leukemia
[7] = tested on: COLO 205 colon
[8] = tested on: DU-145 prostate
[9] = tested on: EKVX NSCLC
[10] = tested on: HCT-116 colon
[11] = tested on: HCT-15 colon
[12] = tested on: HL-60(TB) leukemia
[13] = tested on: HOP-62 NSCLC
[14] = tested on: HOP-92 NSCLC
[15] = tested on: HS 578T breast
[16] = tested on: HT29 colon
[17] = tested on: IGROV1 ovarian
[18] = tested on: K-562 leukemia
[19] = tested on: KM12 colon
[20] = tested on: LOX IMVI melanoma
[21] = tested on: M14 melanoma
[22] = tested on: MALME-3M melanoma
[23] = tested on: MCF7 breast
[24] = tested on: MDA-MB-231 breast
[25] = tested on: MDA-MB-435
[26] = tested on: MOLT-4 leukemia
[27] = tested on: NCI-H226 lung
[28] = tested on: NCI-H23 lung
[29] = tested on: NCI-H460 lung
[30] = tested on: NCI-H522 lung
[31] = tested on: NCI/ADR-RES ovarian
[32] = tested on: OVCAR-3 ovarian
[33] = tested on: OVCAR-4 ovarian
[34] = tested on: OVCAR-5 ovarian
[35] = tested on: OVCAR-8 ovarian
[36] = tested on: PC-3 prostate
[37] = tested on: RPMI-8226 leukemia
[38] = tested on: RXF 393 renal
[39] = tested on: SF-268 CNS
[40] = tested on: SF-295 CNS
[41] = tested on: SF-539 CNS
[42] = tested on: SK-MEL-2 melanoma
[43] = tested on: SK-MEL-28 melanoma
[44] = tested on: SK-MEL-5 melanoma
[45] = tested on: SK-OV-3 ovarian
[46] = tested on: SN12C renal
[47] = tested on: SNB-19 CNS
[48] = tested on: SNB-75 CNS
[49] = tested on: SR leukemia
[50] = tested on: SW-620 colon
[51] = tested on: T-47D breast
[52] = tested on: TK-10 renal
[53] = tested on: U251 CNS
[54] = tested on: UACC-257 melanoma
[55] = tested on: UACC-62 melanoma
[56] = tested on: UO-31 renal
[57] = tested on: A498 renal
[58] = tested on: HCC-2998 colon

Cc1c2c(nn1-c1ccc(S/N=C3\SCC(=O)CN3c3ccccc3)cc1)-c1ccccc1CC2
GI50 [1]: 13.3 µM | TGI [1]: > 50 µM | GI50 [2]: > 50 µM | TGI [2]: > 50 µM | GI50 [3]: 24.1 µM | TGI [3]: > 50 µM | GI50 [4]: 11.1 µM | TGI [4]: 34.5 µM | GI50 [5]: 18.1 µM | TGI [5]: > 50 µM | GI50 [6]: 28.1 µM | TGI [6]: > 50 µM | GI50 [7]: > 50 µM | TGI [7]: > 50 µM | GI50 [8]: 43.9 µM | TGI [8]: > 50 µM | GI50 [9]: > 50 µM | TGI [9]: > 50 µM | GI50 [10]: 6.5 µM | TGI [10]: 15.9 µM | GI50 [11]: 21.2 µM | TGI [11]: > 50 µM | GI50 [12]: > 50 µM | TGI [12]: > 50 µM | GI50 [13]: 12.7 µM | TGI [13]: 47.7 µM | GI50 [14]: > 50 µM | TGI [14]: > 50 µM | GI50 [15]: 15.5 µM | TGI [15]: > 50 µM | GI50 [16]: 34.5 µM | TGI [16]: > 50 µM | GI50 [17]: 8.31 µM | TGI [17]: 21.4 µM | GI50 [18]: 17.6 µM | TGI [18]: > 50 µM | GI50 [19]: 46.5 µM | TGI [19]: > 50 µM | GI50 [20]: 5.59 µM | TGI [20]: 34.2 µM | GI50 [21]: 13.4 µM | TGI [21]: 43.7 µM | GI50 [22]: > 50 µM | TGI [22]: > 50 µM | GI50 [23]: 7.79 µM | TGI [23]: 36.7 µM | GI50 [24]: 15.4 µM | TGI [24]: > 50 µM | GI50 [25]: 16.8 µM | TGI [25]: > 50 µM | GI50 [26]: 19.6 µM | TGI [26]: > 50 µM | GI50 [27]: 9.75 µM | TGI [27]: 27 µM | GI50 [28]: 32.3 µM | TGI [28]: > 50 µM | GI50 [29]: 15.2 µM | TGI [29]: > 50 µM | GI50 [30]: 15.4 µM | TGI [30]: > 50 µM | GI50 [31]: 14.5 µM | TGI [31]: > 50 µM | GI50 [32]: > 50 µM | TGI [32]: > 50 µM | GI50 [33]: 37.6 µM | TGI [33]: > 50 µM | GI50 [34]: > 50 µM | TGI [34]: > 50 µM | GI50 [35]: > 50 µM | TGI [35]: > 50 µM | GI50 [36]: 20.4 µM | TGI [36]: > 50 µM | GI50 [37]: 7.85 µM | TGI [37]: > 50 µM | GI50 [38]: 31.5 µM | TGI [38]: > 50 µM | GI50 [39]: 20.2 µM | TGI [39]: > 50 µM | GI50 [40]: > 50 µM | TGI [40]: > 50 µM | GI50 [41]: 22.4 µM | TGI [41]: > 50 µM | GI50 [42]: 18.2 µM | TGI [42]: 47 µM | GI50 [43]: 28.5 µM | TGI [43]: > 50 µM | GI50 [44]: 8.11 µM | TGI [44]: 22.3 µM | GI50 [45]: 43.3 µM | TGI [45]: > 50 µM | GI50 [46]: 17.8 µM | TGI [46]: > 50 µM | GI50 [47]: > 50 µM | TGI [47]: > 50 µM | GI50 [48]: > 50 µM | TGI [48]: > 50 µM | GI50 [49]: 1.88 µM | TGI [49]: > 50 µM | GI50 [50]: 19.1 µM | TGI [50]: > 50 µM | GI50 [51]: 24.7 µM | TGI [51]: > 50 µM | GI50 [52]: > 50 µM | TGI [52]: > 50 µM | GI50 [53]: 21.1 µM | TGI [53]: > 50 µM | GI50 [54]: 45.3 µM | TGI [54]: > 50 µM | GI50 [55]: 16 µM | TGI [55]: > 50 µM | GI50 [56]: 28.4 µM | TGI [56]: > 50 µM

COc1ccc(/C=C(/C(=O)N2CCNCC2)c2cc(OC)c(OC)c(OC)c2)cc1O
GI50 [1]: 33.1 µM | TGI [1]: > 100 µM | GI50 [57]: 1.22 µM | TGI [57]: 7.33 µM | GI50 [2]: 6.63 µM | TGI [2]: > 100 µM | GI50 [3]: 49.5 µM | TGI [3]: > 100 µM | GI50 [4]: 4.22 µM | TGI [4]: 48.4 µM | GI50 [5]: > 100 µM | TGI [5]: > 100 µM | GI50 [6]: 3.23 µM | TGI [6]: > 100 µM | GI50 [7]: 3.24 µM | TGI [7]: 14 µM | GI50 [8]: 4.1 µM | TGI [8]: > 100 µM | GI50 [9]: 6.43 µM | TGI [9]: > 100 µM | GI50 [58]: 3.76 µM | TGI [58]: > 100 µM | GI50 [10]: 3.45 µM | TGI [10]: > 100 µM | GI50 [11]: 36.7 µM | TGI [11]: > 100 µM | GI50 [12]: 1.87 µM | TGI [12]: 5.5 µM | GI50 [13]: 5.08 µM | TGI [13]: > 100 µM | GI50 [14]: 23.5 µM | TGI [14]: > 100 µM | GI50 [15]: 2.42 µM | TGI [15]: 30 µM | GI50 [16]: 7.75 µM | TGI [16]: > 100 µM | GI50 [17]: 6.73 µM | TGI [17]: > 100 µM | GI50 [18]: 1.6 µM | TGI [18]: > 100 µM | GI50 [19]: 3.18 µM | TGI [19]: > 100 µM | GI50 [20]: 5.21 µM | TGI [20]: > 100 µM | GI50 [21]: 3.83 µM | TGI [21]: > 100 µM | GI50 [23]: 1.34 µM | TGI [23]: > 100 µM | GI50 [24]: 4.41 µM | TGI [24]: > 100 µM | GI50 [25]: 0.418 µM | TGI [25]: 1.8 µM | GI50 [26]: 3.94 µM | TGI [26]: > 100 µM | GI50 [27]: 5.4 µM | TGI [27]: > 100 µM | GI50 [28]: 5.16 µM | TGI [28]: > 100 µM | GI50 [29]: 3.42 µM | TGI [29]: > 100 µM | GI50 [30]: 2.42 µM | TGI [30]: 9.84 µM | GI50 [31]: > 100 µM | TGI [31]: > 100 µM | GI50 [32]: 2.45 µM | TGI [32]: 7.1 µM | GI50 [33]: 8.15 µM | TGI [33]: > 100 µM | GI50 [34]: 6.21 µM | TGI [34]: > 100 µM | GI50 [35]: 5.64 µM | TGI [35]: > 100 µM | GI50 [36]: 2.72 µM | TGI [36]: > 100 µM | GI50 [37]: 3.55 µM | TGI [37]: > 100 µM | GI50 [38]: 2.95 µM | TGI [38]: > 100 µM | GI50 [39]: 7.23 µM | TGI [39]: > 100 µM | GI50 [40]: 5.36 µM | TGI [40]: 60.3 µM | GI50 [41]: 2.22 µM | TGI [41]: 6.51 µM | GI50 [42]: 3.51 µM | TGI [42]: > 100 µM | GI50 [43]: 8.84 µM | TGI [43]: > 100 µM | GI50 [44]: 4.71 µM | TGI [44]: 56.4 µM | GI50 [45]: 4.18 µM | TGI [45]: > 100 µM | GI50 [46]: 7.86 µM | TGI [46]: > 100 µM | GI50 [47]: 3.91 µM | TGI [47]: > 100 µM | GI50 [49]: 0.642 µM | TGI [49]: > 100 µM | GI50 [50]: 3.69 µM | TGI [50]: > 100 µM | GI50 [51]: 6.71 µM | TGI [51]: > 100 µM | GI50 [52]: 79.4 µM | TGI [52]: > 100 µM | GI50 [53]: 3.29 µM | TGI [53]: > 100 µM | GI50 [54]: 33.7 µM | TGI [54]: > 100 µM | GI50 [55]: 3.15 µM | TGI [55]: > 100 µM | GI50 [56]: 55.5 µM | TGI [56]: > 100 µM
